{"source": "patent US4550186A", "about": "“Binuclear copper (II) carboxylates formed from amine-carboxyboranes” (Duke University, priority 1983, dated 1985)", "key": {"[1]": {"molecular_target": "T1, carbamyl phosphate synthetase (Mus musculus, UniProt B2RQC6)", "T1 construct": "CPSase II domain of CAD; ornithine transcarbamylase used as coupling enzyme", "T1 sequence (B2RQC6 2-2225)": "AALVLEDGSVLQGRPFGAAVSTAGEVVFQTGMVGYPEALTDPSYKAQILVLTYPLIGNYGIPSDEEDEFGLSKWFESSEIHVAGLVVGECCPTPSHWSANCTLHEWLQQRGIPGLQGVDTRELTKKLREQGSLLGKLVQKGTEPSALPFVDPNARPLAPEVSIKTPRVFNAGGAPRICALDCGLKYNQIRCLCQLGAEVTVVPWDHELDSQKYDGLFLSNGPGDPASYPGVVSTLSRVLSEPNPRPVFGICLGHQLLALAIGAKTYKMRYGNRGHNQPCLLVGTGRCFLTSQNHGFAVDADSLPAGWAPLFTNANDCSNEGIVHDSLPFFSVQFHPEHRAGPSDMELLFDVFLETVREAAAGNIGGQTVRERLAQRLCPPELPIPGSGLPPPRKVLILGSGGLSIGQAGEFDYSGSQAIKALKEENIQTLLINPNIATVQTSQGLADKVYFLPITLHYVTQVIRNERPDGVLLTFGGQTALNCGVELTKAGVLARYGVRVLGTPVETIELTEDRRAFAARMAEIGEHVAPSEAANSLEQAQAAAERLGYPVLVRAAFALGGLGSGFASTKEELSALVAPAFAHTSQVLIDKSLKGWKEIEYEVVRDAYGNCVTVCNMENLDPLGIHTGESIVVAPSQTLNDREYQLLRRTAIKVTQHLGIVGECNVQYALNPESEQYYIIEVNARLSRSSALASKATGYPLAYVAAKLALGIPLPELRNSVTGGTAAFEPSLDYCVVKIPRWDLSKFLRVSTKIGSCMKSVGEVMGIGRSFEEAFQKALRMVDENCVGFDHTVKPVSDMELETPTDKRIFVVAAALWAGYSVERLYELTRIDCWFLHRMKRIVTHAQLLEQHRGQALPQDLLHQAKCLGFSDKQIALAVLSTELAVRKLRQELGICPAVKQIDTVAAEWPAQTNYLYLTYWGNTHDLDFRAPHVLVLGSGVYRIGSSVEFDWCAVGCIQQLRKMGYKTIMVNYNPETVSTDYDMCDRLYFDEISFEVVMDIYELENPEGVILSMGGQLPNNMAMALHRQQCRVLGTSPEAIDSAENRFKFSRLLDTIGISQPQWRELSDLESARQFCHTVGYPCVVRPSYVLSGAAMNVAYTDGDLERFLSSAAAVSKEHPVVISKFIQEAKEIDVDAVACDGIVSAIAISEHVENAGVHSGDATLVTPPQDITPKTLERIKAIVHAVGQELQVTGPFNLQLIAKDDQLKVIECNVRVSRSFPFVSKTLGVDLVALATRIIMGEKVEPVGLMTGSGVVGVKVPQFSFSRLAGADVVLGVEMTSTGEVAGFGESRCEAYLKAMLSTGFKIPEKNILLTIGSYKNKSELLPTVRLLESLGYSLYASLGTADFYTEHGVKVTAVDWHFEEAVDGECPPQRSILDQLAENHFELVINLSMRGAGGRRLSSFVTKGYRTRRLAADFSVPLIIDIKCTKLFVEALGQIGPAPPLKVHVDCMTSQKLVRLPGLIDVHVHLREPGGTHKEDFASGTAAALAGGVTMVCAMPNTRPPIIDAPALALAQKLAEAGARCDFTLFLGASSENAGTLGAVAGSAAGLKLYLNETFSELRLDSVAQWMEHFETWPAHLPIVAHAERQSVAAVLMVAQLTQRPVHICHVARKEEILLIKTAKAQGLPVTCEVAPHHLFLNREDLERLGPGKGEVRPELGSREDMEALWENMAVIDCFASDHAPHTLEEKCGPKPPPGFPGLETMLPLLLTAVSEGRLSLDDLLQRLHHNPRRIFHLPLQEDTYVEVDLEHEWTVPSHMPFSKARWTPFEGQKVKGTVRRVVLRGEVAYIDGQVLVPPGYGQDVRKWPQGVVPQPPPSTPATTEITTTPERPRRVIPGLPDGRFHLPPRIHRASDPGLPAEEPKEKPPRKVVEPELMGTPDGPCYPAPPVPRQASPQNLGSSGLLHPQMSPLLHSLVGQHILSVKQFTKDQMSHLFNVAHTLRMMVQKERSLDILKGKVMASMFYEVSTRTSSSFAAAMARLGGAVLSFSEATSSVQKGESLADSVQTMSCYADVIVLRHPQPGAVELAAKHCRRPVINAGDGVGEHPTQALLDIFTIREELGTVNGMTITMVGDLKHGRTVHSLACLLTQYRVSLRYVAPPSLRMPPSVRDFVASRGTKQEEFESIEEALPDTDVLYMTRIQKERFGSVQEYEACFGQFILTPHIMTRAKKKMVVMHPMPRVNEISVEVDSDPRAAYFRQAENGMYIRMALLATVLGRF", "assay": "In vitro carbamyl phosphate synthetase activity", "type": "biochemical", "conditions": "0.25 to 1.0 mM", "protocol": "(§1) CF1 male mice (~30 g) were implanted with 2×10^6 Ehrlich ascites tumor cells, intraperitoneally on Day 0. Compound I was suspended by homogenation in 0.05% polysorbate.80-water and administered intraperitoneally at 10 and 20 mg/kg for 9 days to determine its effectiveness for inhibition of tumor growth. Mice were sacrificed on Day 10, and the ascites fluid was collected from the peritoneal cavity. The volume and ascrit (packed cell volume) were determined for each animal and the percent inhibition of tumor growth was calculated. For the metabolic studies, mice were treated on Days 8 and 9 with 10 mg/kg of Compound I, intraperitoneally. […]\n(§2) Carbamyl phosphate synthetase activity was determined using the reaction medium of Kalman et al [Am. […] Citrulline formed from ornithine was measured at 490 nm by the method of Archibald [J. Biol. Chem., 156, 121 (1944)]. […] The ^14 CO2 generated in 15 min was trapped in 1M KOH and counted. Thymidylate synthetase activity was determined using a post-mitochondrial supernatant (9000 g×10 min) and 5 μCi of 5-^3 H-deoxyuridine monophosphate (14 Ci/mmol) according to the method of Kampf et al [ J. Med. Chem., 19, 903 (1976)]. ^14 C-Formate incorporation into purines was determined by the method of Spassova et al [Biochem. Pharmacol., 25, 923 (1976)] using 0.5 μCi of ^14 C-formic acid (52.0 mCi/mmol). […] The Rf value for xanthine monophosphate was scraped and counted. […]"}, "[2]": {"tested_on": "deoxyribonucleic acid synthesis of Ehrlich ascites cells", "assay": "In vitro whole cell incorporation: deoxyribonucleic acid synthesis", "type": "cell-based, mouse", "conditions": "preliminary, 60 min, read-out: ID50, inhibition of deoxyribonucleic acid synthesis", "protocol": "(§3) CF1 male mice (~30 g) were implanted with 2×10^6 Ehrlich ascites tumor cells, intraperitoneally on Day 0. Compound I was suspended by homogenation in 0.05% polysorbate.80-water and administered intraperitoneally at 10 and 20 mg/kg for 9 days to determine its effectiveness for inhibition of tumor growth. Mice were sacrificed on Day 10, and the ascites fluid was collected from the peritoneal cavity. The volume and ascrit (packed cell volume) were determined for each animal and the percent inhibition of tumor growth was calculated. For the metabolic studies, mice were treated on Days 8 and 9 with 10 mg/kg of Compound I, intraperitoneally. The animal was sacrificed on Day 10 and the ascites fluid harvested. The in vitro metabolic studies were performed at […] final concentration of Compound I.\n(§4) In vitro incorporation of ^3 H-thymidine, ^3 H-uridine, or ^3 H-leucine was determined using 10^6 Ehrlich ascites cells, 1 μCi labeled precursor, minimum essential medium and varying final concentrations of drug from 0.25-1.0 mM. The tubes were incubated at 37° C. for 60 min and inactivated by trichloroacetic acid. The acid insoluble labeled deoxyribonucleic acid was collected on GF/F glass filter discs and ribonucleic acid and protein were precipitated on nitrocellulose filters by vacuum suction. Results are expressed as dpm of incorporated precursor per hour per 10^6 cells."}, "CF1 male mice": {"tested_on": "CF1 male mice", "assay": "Acute toxicity (LD50)", "type": "in vivo, mouse", "conditions": "CF1 mice intraperitoneally, single dose, 7 days", "protocol": "The acute toxicity (LD50 values) was determined in CF1 male mice by administering test drugs intraperitoneally from 5-50 mg/kg as a single dose. The number of deaths recorded over 7 days in the group was determined for each dosage."}, "[3]": {"tested_on": "protein synthesis of Ehrlich ascites cells", "assay": "In vitro whole cell incorporation: protein synthesis", "type": "cell-based, mouse", "conditions": "preliminary, 60 min, read-out: ID50, protein synthesis", "protocol": "as §3, §4"}, "[4]": {"tested_on": "formate incorporation into purine", "assay": "In vitro formate incorporation into purine (supernatant fraction)", "type": "biochemical, mouse", "conditions": "read-out: ID50, formate incorporation into purine", "protocol": "as §1, §2"}, "[5]": {"assay": "Relative solubilities in solvents", "type": "physicochemical", "description": "Solvents in which ligand exchange reactions or initial formation of the complex may take place depend on the structure of the amine portion of the complex and on the ligand being introduced as is well understood by those skilled in the art. Typical solvents which may be used include water and polar organic solvents, such as methanol and pyridine. Typical of solubilities are the following relative solubilities of {Cu[(Me3 NBH2 COO)2.Me3 NBH2 CO2 H]}2 : […]"}}}
{"substance": "{Cu[(CH3)3 N.BH2 CO2 ]2.(CH3)3 N.BH2 COOH} [Compound I]", "values": [{"measurement": "carbamyl phosphate synthetase inhibition", "setting": "[1]", "value": "not inhibited"}, {"measurement": "IC50", "setting": "[2]", "value": 940, "unit": "µM"}, {"measurement": "LD50", "setting": "CF1 male mice", "value": 39.2, "unit": "mg/kg"}, {"measurement": "IC50", "setting": "[3]", "value": 863, "unit": "µM"}, {"measurement": "IC50", "setting": "[4]", "value": 1710, "unit": "µM"}, {"measurement": "Solubility", "setting": "[5]; 2-Chloro-2-methylpropane", "value": "insoluble"}, {"measurement": "Solubility", "setting": "[5]; Acetic Acid", "value": "moderately soluble"}, {"measurement": "Solubility", "setting": "[5]; Acetone", "value": "insoluble"}, {"measurement": "Solubility", "setting": "[5]; Acetonitrile", "value": "moderately soluble"}, {"measurement": "Solubility", "setting": "[5]; Benzene", "value": "insoluble"}, {"measurement": "Solubility", "setting": "[5]; Chloroform", "value": "insoluble"}, {"measurement": "Solubility", "setting": "[5]; Diethyl ether", "value": "insoluble"}, {"measurement": "Solubility", "setting": "[5]; Dimethyl sulfoxide", "value": "moderately soluble"}, {"measurement": "Solubility", "setting": "[5]; Ethanol", "value": "very slightly soluble"}, {"measurement": "Solubility", "setting": "[5]; Ethyl Acetate", "value": "insoluble"}, {"measurement": "Solubility", "setting": "[5]; Isopropanol", "value": "insoluble"}, {"measurement": "Solubility", "setting": "[5]; Isopropyl ether", "value": "insoluble"}, {"measurement": "Solubility", "setting": "[5]; Methanol", "value": "moderately soluble"}, {"measurement": "Solubility", "setting": "[5]; Methylene chloride", "value": "slightly soluble"}, {"measurement": "Solubility", "setting": "[5]; Pentane", "value": "insoluble"}, {"measurement": "Solubility", "setting": "[5]; Pyridine", "value": "moderately soluble"}, {"measurement": "Solubility", "setting": "[5]; Tetrahydrofuran", "value": "insoluble"}, {"measurement": "Solubility", "setting": "[5]; Water", "value": "very soluble"}]}
